Data published in US20140205569A1, “METHODS AND COMPOSITIONS FOR PREVENTING AND TREATING OSTEOARTHRITIS” (priority 2010, published 2014).

Key:
canine chondrocytes = test: Quantitative PCR expression of osteoarthritis-related genes in fatty-acid-enriched canine chondrocytes in alginate beads, stimulated with SMNCM; type: cell-based; conditions: fatty acid 50 μM, 3 weeks, 3rd week with 10% SMNCM; normalized to cyclophilin A; N=4
Protocol: Canine cartilage was digested in a 37° C. shaking water bath using the following enzymes: trypsin (0.25%) for 25 minutes, hyaluronidase (150U/ml) for 1 hour, and collagenase (0.78%) overnight. Digested cartilage was filtered to obtain chondrocytes. Chondrocytes were expanded in monolayer culture with complete media. Composition of the complete media is Dulbecco's Modified Eagle Medium (DMEM)/F12 supplemented with 10% FBS, 1% P/S (100 U/mL penicillin and 100 μg/mL streptomycin) and 50 μg/ml ascorbic acid. Reaching subconfluence, chondrocytes were detached with 0.05% trypsin and cryopreserved. After cryopreservation, canine chondrocytes were expanded in a monolayer and, after reaching subconfluence, cells were trypsinized and subsequently immobilized in alginate beads. Cells suspended in complete media +3% alginate were dropped from a 18-gauge syringe into calcium chloride (120 mM) to form “beads.” Chondrocyte beads were cultured in complete media and media was changed every 2 or 3 days. At the end of the treatment, the chondrocyte beads were dissolved in sodium citrate (55 mM in 0.15 M NaCl). Suspensions were centrifuged at 2620 rpm for 5 minutes. Cells were washed with phosphate buffer and centrifuged again at 2620 rpm for 5 minutes. One mL RNAqueous™ lysis binding solution (Ambion, Austin, Tex.) was added to the isolated canine chondrocyte pellet, mixed thoroughly and stored at −80° C. until RNA isolation could be performed.
Samples were vortexed and homogenized using a Quiashredder column (Qiagen, Valencia, Calif.) according to manufacturer's directions. The homogenized lysate was collected and 1 equal volume of 64% ethanol was added to it. This mixture was then applied to an RNAqueous™ filter cartridge, 700 uL at a time, and centrifuged for 1 minute at 10,000 rpm. The cartridge was washed using 700 uL wash solution #1 and 500 uL wash solution #2/3 with centrifugation at 10,000 rpm for 1 minute for each wash. The filter cartridge was dried by centrifugation (10,000 rpm) for 1 minute. RNA was eluted 3 times by centrifugation (as above) using 30 uL aliquots of 95-100° C. elution solution. The resulting RNA was DNAse-treated and quantitated in a Beckman DU 640B spectrophotometer (Beckman Coulter, Inc., Brea, Calif.) at 260 nm. Additionally, quantity and quality were assessed using a bioanalyzer (Agilent, Santa Clara, Calif.) according to manufacturer's directions.
Stimulated monocyte neutrophil conditioned media (SMNCM) was made by isolating monocytes and neutrophils from canine whole blood using NycoPrep™ according to the manufacturer's directions. Monocytes and neutrophils were stimulated with lipopolysaccharide (20 ng/mL) for 72 hours. The resulting supernatant was used as SMNCM in cell culture experimentation (SMNCM made up 10% of media used during experimentation and is kept in frozen aliquots).
Chondrocytes were enriched with a fatty acid at 50 μM just after they were enclosed in beads. FBS and ethanol were used as a vehicle. Once the enriched media were prepared, ethanol represented less than 0.1%. Cells were enriched with either arachidonic acid (AA) and dihomo-γ-linolenic acid for 3 weeks total in complete media. The 3rd week the enriched media also contained 10% stimulated monocyte neutrophil conditioned media (SMNCM). Chondrocyte beads were dissolved at the end of the experiment.
All samples were run singularly against each primer/probe set to determine what standard curve should be used. Standard curves were generated using serial dilutions of liver RNA or RNA from experimental samples. […] Values were normalized to cyclophilin A levels as determined by quantitative PCR. Inductions were calculated from each of the lowest sample's normalized value. N=4 for all treatments.
Values represent relative average induction values. […]

NF-kB = NF-kB activation measured as SEAP release in HT-29 clone 34 cells with or without rhTNF-alpha; type: cell-based; conditions: general statement of the discovery
Protocol: HT-29 clone 34 cells were seeded at 2.0×10^5 cells/well in DMEM with 5% FCS and 1% PS. Cells were incubated for 24 hours at 37° C. at 5% CO2 with or without rhTNF-alpha with dihomo-gamma-linolenic acid (0.1, 0.3, 0.5, 0.7 or 1 mg/ml) in ethanol as a vehicle. NF-kB activity was measured as SEAP release using a Phospha-Light™ System (Applied Biosystems, Bedford, Mass.) per manufacturer's directions.

Prostaglandin E2 (PGE2) = test: PGE2 levels in chondrocyte media by enzyme immunoassay, per cell; type: cell-based, canine; conditions: for PGE2 levels from chondrocyte media, Avg / PGE2 levels from chondrocyte media: fatty acid 50 μM; for PGE2 levels from chondrocyte media, Avg: average of four chondrocyte batches
Protocol: Canine cartilage was digested in a 37° C. shaking water bath using the following enzymes: trypsin (0.25%) for 25 minutes, hyaluronidase (150U/ml) for 1 hour, and collagenase (0.78%) overnight. Digested cartilage was filtered to obtain chondrocytes. Chondrocytes were expanded in monolayer culture with complete media. Composition of the complete media is Dulbecco's Modified Eagle Medium (DMEM)/F12 supplemented with 10% FBS, 1% P/S (100 U/mL penicillin and 100 μg/mL streptomycin) and 50 μg/ml ascorbic acid. Reaching subconfluence, chondrocytes were detached with 0.05% trypsin and cryopreserved. After cryopreservation, canine chondrocytes were expanded in a monolayer and, after reaching subconfluence, cells were trypsinized and subsequently immobilized in alginate beads. Cells suspended in complete media +3% alginate were dropped from a 18-gauge syringe into calcium chloride (120 mM) to form “beads.” Chondrocyte beads were cultured in complete media and media was changed every 2 or 3 days. At the end of the treatment, the chondrocyte beads were dissolved in sodium citrate (55 mM in 0.15 M NaCl). Suspensions were centrifuged at 2620 rpm for 5 minutes. Cells were washed with phosphate buffer and centrifuged again at 2620 rpm for 5 minutes. One mL RNAqueous™ lysis binding solution (Ambion, Austin, Tex.) was added to the isolated canine chondrocyte pellet, mixed thoroughly and stored at −80° C. until RNA isolation could be performed. Chondrocytes were enriched with a fatty acid at 50 μM just after they were enclosed in beads. FBS and ethanol were used as a vehicle. Once the enriched media were prepared, ethanol represented less than 0.1%. Cells were enriched with either arachidonic acid (AA) and dihomo-γ-linolenic acid for 3 weeks total in complete media. The 3rd week the enriched media also contained 10% stimulated monocyte neutrophil conditioned media (SMNCM). Chondrocyte beads were dissolved at the end of the experiment. Cell media was aliquoted in micro-centrifuge tubes and stored at −80° C. until analysis. Cells were enriched with either arachidonic acid (AA) and dihomo-γ-linolenic acid. Prostaglandin E2 (PGE2) levels were determined using Amersham Prostaglandin Prostaglandin E2 Biotrak Enzyme Immunoassay (EIA, GE Healthcare). Before performing the assay, media samples were thawed then diluted 50 to 250 times in assay buffer. Standards and samples were run in duplicate. The cell suspensions obtained after dissolving the alginate beads were centrifuged. After removing the supernatant, each cell pellet was resuspended in 1 ml of phosphate buffered saline. From each sample, 10 μL was added to the same volume of trypan blue stain before counting with a hemocytometer.

SMILES	Quantitative PCR expression value 2252B (relative average induction) (canine chondrocytes)	Quantitative PCR expression value ADAMTS-4 (relative average induction) (canine chondrocytes)	Quantitative PCR expression value ADAMTS-5 (relative average induction) (canine chondrocytes)	Quantitative PCR expression value CYTL-1 (relative average induction) (canine chondrocytes)	Quantitative PCR expression value GRIA-4 (relative average induction) (canine chondrocytes)	Quantitative PCR expression value IGF-2 (relative average induction) (canine chondrocytes)	Quantitative PCR expression value IL-1 (relative average induction) (canine chondrocytes)	Quantitative PCR expression value IL-6 (relative average induction) (canine chondrocytes)	Quantitative PCR expression value IL-8 (relative average induction) (canine chondrocytes)	Quantitative PCR expression value MMP-2 (relative average induction) (canine chondrocytes)	Quantitative PCR expression value MMP-9 (relative average induction) (canine chondrocytes)	Quantitative PCR expression value MMP-13 (relative average induction) (canine chondrocytes)	Quantitative PCR expression value PC-2A (relative average induction) (canine chondrocytes)	Quantitative PCR expression value SOX-9 (relative average induction) (canine chondrocytes)	Quantitative PCR expression value TIMP-1 (relative average induction) (canine chondrocytes)	Quantitative PCR expression value TIMP-2 (relative average induction) (canine chondrocytes)	Quantitative PCR expression value TNF-alpha (relative average induction) (canine chondrocytes)	PGE2 levels from chondrocyte media, Avg (Prostaglandin E2 (PGE2)) [fg/ml/cell]	PGE2 levels from chondrocyte media (Prostaglandin E2 (PGE2); chondrocyte batch 1084) [fg/ml/cell]	PGE2 levels from chondrocyte media (Prostaglandin E2 (PGE2); chondrocyte batch 31010) [fg/ml/cell]	further results
CCCCC/C=C\C/C=C\C/C=C\CCCCCCC(=O)O [DGLA, dihomo-γ-linolenic acid]	4.7	1.6	2.8	18.0	4.2	15.9	2.4	3.9	3.1	1.6	22.9	2.1	5.2	1.9	3.7	1.6	18.8	598	800	331	Effect on NF-kB activation (in words) (NF-kB): inhibit NF-kB activation; PGE2 % Decrease (Prostaglandin E2 (PGE2); 50 μM DGLA versus 50 μM AA, chondrocyte batch 1084): 16%; PGE2 % Decrease (Prostaglandin E2 (PGE2); 50 μM DGLA versus 50 μM AA, chondrocyte batch 31010): 30%; PGE2 % Decrease (Prostaglandin E2 (PGE2); 50 μM DGLA versus 50 μM AA, chondrocyte batch 31510): 34%; PGE2 % Decrease (Prostaglandin E2 (PGE2); 50 μM DGLA versus 50 μM AA, chondrocyte batch 41210): 73%; PGE2 % Decrease, Avg (Prostaglandin E2 (PGE2); 50 μM DGLA versus 50 μM AA, from the batch averages): 58%; PGE2 levels from chondrocyte media (Prostaglandin E2 (PGE2); chondrocyte batch 31510): 182 fg/ml/cell; PGE2 levels from chondrocyte media (Prostaglandin E2 (PGE2); chondrocyte batch 41210): 1080 fg/ml/cell; Effect on inflammatory mediators (in words) (Prostaglandin E2 (PGE2); general statement of the discovery): reduce inflammatory mediators
CCCCC/C=C\C/C=C\C/C=C\C/C=C\CCCC(=O)O [AA, arachidonic acid, reference compound]	4.3	1.4	3.0	18.1	5.0	14.7	4.1	4.8	3.0	1.8	9.5	2.7	4.5	1.9	3.5	1.6	26.4	1414	957	473	PGE2 levels from chondrocyte media (Prostaglandin E2 (PGE2); chondrocyte batch 31510): 274 fg/ml/cell; PGE2 levels from chondrocyte media (Prostaglandin E2 (PGE2); chondrocyte batch 41210): 3950 fg/ml/cell
